Calls of active or inactive are those of the source. The rule behind the calls is not given here.

Data set [1] can be described thus: Acute toxicity in Kunming mouse assessed mortality at 1000 mg/kg, ip measured for 14 days. It is filed as organism-based. To be noted: in vivo, 336 h, time 14 day.
Data set [2] addresses Signal transducer and activator of transcription 3 (Homo sapiens) (UniProt P40763). As to the kind of experiment: Inhibition of STAT3 nuclear translocation in human U-87 MG cells incubated for 24 hrs by Hoechst staining based fluorescence confocal imaging analysis. It is filed as cell-based.
Data set [3] has as its system U-251. As to the kind of experiment: Induction of apoptosis in human U-251 cells assessed as early apoptotic cells at 4 uM incubated for 48 hrs by […] double staining based flow cytometry assay (reference value: 0.73%). The data set is classed as functional. Background: A flow cytometer gives signals particle by particle.
In another data set the test system is Rattus norvegicus. Briefly: Anxiolytic activity in rat C6 cells inoculated orthotopic Sprague-Dawley rat model assessed as increase in time spent in central part at 50 mg/kg, ip twice a day administered for 13 days of tumor implantation by open field test relative to control. To be noted: time 13.0 day. The data set is classed as functional, organism-based.

The nature of data set [4]: Acute toxicity in Kunming mouse assessed behavioural changes at 1000 mg/kg, ip measured for 14 days. The data set is classed as organism-based. As to conditions: in vivo, 336 h, time 14 day.
The test system of data set [5] is C6. Briefly: Antitumor activity against rat C6 cells inoculated orthotopic Sprague-Dawley rat model assessed as decrease in PGE2 in tumor tissue at 50 mg/kg, ip twice a day treated 3 days after tumor cell injection measured for 13 days after tumor implantation […]. The data set is classed as functional, organism-based. To be noted: time 3.0 day.

Data set [6] has as its system U-87 MG. Briefly: Induction of apoptosis in human U-87 MG cells assessed as late apoptotic cells at 8 uM incubated for 48 hrs by […] double staining based flow cytometry assay (reference value: 0.61%). It is filed as functional, U-87MG ATCC.
Data set [7] concerns C6. As to the kind of experiment: Antitumor activity against rat C6 cells inoculated orthotopic Sprague-Dawley rat model assessed as suppression of glioma cells to invade the surrounding brain tissue at 50 mg/kg, ip twice a day administered for 13 days of tumor implantation by hematoxylin-eosin staining analysis. As to conditions: time 13.0 day. The data set is classed as functional, organism-based.

Data set [8] addresses Tyrosine-protein kinase JAK2 (Homo sapiens) (UniProt O60674). As to the kind of experiment: Inhibition JAK2 phosphorylation in human U-87 MG cells incubated up to 8 hrs by Western blot analysis. To be noted: time hrs <=8. The data set is classed as cell-based. On the technique in general: A western blot detects proteins with antibodies after separation by electrophoresis.
The test system of data set [9] is U-251. Briefly: Induction of apoptosis in human U-251 cells assessed as late apoptotic cells at 4 uM incubated for 48 hrs by […] double staining based flow cytometry assay (reference value: 1.39%). It is filed as functional.
Data set [10] is described as follows: Half life in Sprague-Dawley rat at 60 mg/kg, ip measured up to 24 hrs by LC-MS analysis. It is filed as ADME, organism-based. As to conditions: in vivo.
Data set [11] relates to U-87 MG. As to the kind of experiment: Antiproliferative activity against human U-87 MG cells assessed as colony formation ratio at 4 uM measured after 24 hrs by plate clone formation assay relative to control. The data set is classed as functional, U-87MG ATCC.
Data set [12] has as its system U-251. Briefly: Induction of apoptosis in human U-251 cells assessed as viable cells at 8 uM incubated for 48 hrs by […] double staining based flow cytometry assay (reference value: 96.6%). The data set is classed as functional. To be noted: read-out: Activity.
Data set [13] deals with Signal transducer and activator of transcription 3 (Homo sapiens) (UniProt P40763). Briefly: Inhibition STAT3 phosphorylation in human U-87 MG cells incubated up to 8 hrs by Western blot analysis. It is filed as cell-based. To be noted: time hrs <=8.
Signal transducer and activator of transcription 3 (Homo sapiens), sequence (P40763 whole entry): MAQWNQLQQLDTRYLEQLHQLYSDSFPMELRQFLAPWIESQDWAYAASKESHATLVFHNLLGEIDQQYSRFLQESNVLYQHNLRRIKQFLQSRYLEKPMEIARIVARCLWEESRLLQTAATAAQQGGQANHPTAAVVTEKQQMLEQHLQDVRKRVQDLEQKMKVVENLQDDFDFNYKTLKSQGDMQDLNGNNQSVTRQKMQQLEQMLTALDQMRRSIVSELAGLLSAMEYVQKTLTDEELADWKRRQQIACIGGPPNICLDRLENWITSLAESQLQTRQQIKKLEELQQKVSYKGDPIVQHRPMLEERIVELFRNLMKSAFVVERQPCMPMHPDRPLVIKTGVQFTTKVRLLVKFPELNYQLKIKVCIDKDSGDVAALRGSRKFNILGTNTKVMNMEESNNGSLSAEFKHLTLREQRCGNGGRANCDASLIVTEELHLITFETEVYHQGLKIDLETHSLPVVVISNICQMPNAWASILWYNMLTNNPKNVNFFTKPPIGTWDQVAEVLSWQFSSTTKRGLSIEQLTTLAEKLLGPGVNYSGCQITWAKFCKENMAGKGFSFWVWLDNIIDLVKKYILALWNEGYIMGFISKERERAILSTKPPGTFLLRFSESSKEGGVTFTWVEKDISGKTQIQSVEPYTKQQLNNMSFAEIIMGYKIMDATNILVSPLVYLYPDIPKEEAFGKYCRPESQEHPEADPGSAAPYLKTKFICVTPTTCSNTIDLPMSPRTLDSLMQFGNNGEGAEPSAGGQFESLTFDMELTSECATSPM
For data set [14], the system named is U-251. Briefly: Induction of apoptosis in human U-251 cells assessed as late apoptotic cells at 8 uM incubated for 48 hrs by […] double staining based flow cytometry assay (reference value: 1.39%). The data set is classed as functional.
The subject of data set [15] is U-87 MG. As to the kind of experiment: Induction of apoptosis in human U-87 MG cells assessed as necrotic cells at 4 uM incubated for 48 hrs by Annexin VIM double staining based flow cytometry assay (reference value: 0.91%). The data set is classed as functional, U-87MG ATCC.

Tyrosine-protein kinase JAK2 (Homo sapiens), sequence (O60674 whole entry): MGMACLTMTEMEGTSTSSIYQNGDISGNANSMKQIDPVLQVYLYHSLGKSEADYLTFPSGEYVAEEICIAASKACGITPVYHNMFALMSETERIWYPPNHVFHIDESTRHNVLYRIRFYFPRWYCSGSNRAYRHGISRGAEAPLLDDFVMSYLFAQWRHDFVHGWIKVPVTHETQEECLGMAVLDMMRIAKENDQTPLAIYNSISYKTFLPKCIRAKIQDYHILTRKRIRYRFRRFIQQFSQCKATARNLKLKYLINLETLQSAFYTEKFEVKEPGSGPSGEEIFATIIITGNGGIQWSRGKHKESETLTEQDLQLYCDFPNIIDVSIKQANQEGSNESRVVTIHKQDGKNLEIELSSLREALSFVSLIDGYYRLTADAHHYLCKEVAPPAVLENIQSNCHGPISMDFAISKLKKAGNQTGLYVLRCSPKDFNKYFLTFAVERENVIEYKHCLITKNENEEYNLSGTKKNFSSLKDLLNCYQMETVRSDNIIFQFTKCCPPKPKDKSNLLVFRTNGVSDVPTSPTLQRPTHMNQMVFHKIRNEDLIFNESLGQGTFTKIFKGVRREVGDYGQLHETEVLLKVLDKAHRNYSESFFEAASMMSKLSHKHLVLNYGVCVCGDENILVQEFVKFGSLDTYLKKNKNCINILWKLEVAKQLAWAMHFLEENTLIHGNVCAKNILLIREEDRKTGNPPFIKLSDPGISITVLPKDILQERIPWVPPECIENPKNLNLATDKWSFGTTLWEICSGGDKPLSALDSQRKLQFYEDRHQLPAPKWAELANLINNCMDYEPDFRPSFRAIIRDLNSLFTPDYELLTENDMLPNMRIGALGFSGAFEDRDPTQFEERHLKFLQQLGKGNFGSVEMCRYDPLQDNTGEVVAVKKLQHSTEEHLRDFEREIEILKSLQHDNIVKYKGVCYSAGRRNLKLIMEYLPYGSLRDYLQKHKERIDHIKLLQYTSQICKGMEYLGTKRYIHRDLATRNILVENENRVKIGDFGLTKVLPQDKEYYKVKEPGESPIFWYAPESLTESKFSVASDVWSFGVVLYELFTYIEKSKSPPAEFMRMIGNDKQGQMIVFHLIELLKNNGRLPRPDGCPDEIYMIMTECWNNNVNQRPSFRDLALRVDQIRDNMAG

As for `COc1cc(Nc2ccccc2C(=O)NCCc2c[nH]c3ccccc23)cc(OC)c1OC`, the Activity entry in data set [1] is on record as “Non-Toxic”; with U-251 [3], 7.95%; in data set [4], “Non-Toxic”; in the data set on U-87 MG [6], 7.44%; in the data set with U-251 [9], 21.8%; in the data set with U-87 MG [11] it was 0%. For the same compound, the Activity with U-251 [14] is on record as 26.2%; in the data set on U-87 MG [15], 1.86%. Besides, the inhibition entry in data set [2], in [8] and in data set [13] was “Active” each time. The outcome in the data set on Rattus norvegicus, in the data set with C6 [5] and in the data set with C6 [7] was Active. For the same compound, the half-life – broadly, how long it takes for the measured level to halve – in [10] is 11.4 h. Moreover, in the data set with U-251 [12], the viability at 8 µM came to 56.6%.

The values above are taken from ChEMBL document CHEMBL4825684, “Design, synthesis and biological evaluation of N-anthraniloyl tryptamine derivatives as pleiotropic molecules for the therapy of malignant glioma” (Eur J Med Chem, 2021).
